From EP4417602A1, “SUBSTITUTED PYRAZOLE CARBOXAMIDES, SALTS THEREOF AND THEIR USE AS HERBICIDALLY ACTIVE SUBSTANCES” (Bayer AG, priority 2023, dated 2024)

What was measured:
LOLRI = test: C. Herbicidal pre-emergence action, weed and crop plants (Tables C); format: in vivo, Lolium rigidum; conditions: application rate 320 g/ha; Table C7a
Source text: (§1) Seeds of mono- and dicotyledonous weed plants and crop plants were sown, in plastic or organic planting pots, in sandy loam and covered with soil. The compounds according to the invention, formulated in the form of wettable powders (WP) or as emulsifiable concentrates (EC), were applied to the surface of the covering soil as aqueous suspension or emulsion, with the addition of 0.5% of an additive, at an application rate of 6001 of water/ha (converted). Following treatment, the pots were placed in a greenhouse and kept under optimum growth conditions for the test plants. The visual grading of the damage to the test plants was carried out after ca. 3 weeks in comparison to untreated controls (herbicidal effect in percent (%): 100% effect = plants have died off, 0% effect = as control plants). Tables C1 to C12 below show the effects of selected compounds of the general formula (I) according to table 1 on various harmful plants and an application rate corresponding to 320 g/ha or below obtained by the experimental procedure mentioned above. Table C1: pre-emergence activity at 320g/ha against KCHSC in %

GLXMA [1] = test: D. Pre-emergence effects on crop plants (Tables D); format: in vivo, Glycine max; conditions: crop plant
Summary of the method: (§2)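 Seeds sown in sandy loam and covered; WP or EC formulations sprayed onto the soil surface as aqueous suspension/emulsion with 0.5% additive, at 320 g/ha or below. Greenhouse-grown; visual damage scored after ca. 3 weeks against untreated controls (0% = as control, 100% = plants dead).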

POAAN = test: A. Herbicidal pre-emergence action on harmful plants (Tables A); format: in vivo, Poa annua
Summary of the method: (§3)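 Values are visual percent damage relative to untreated controls, scored ca. 3 weeks after the compound was sprayed on the covering soil of sown pots (sandy loam) at rates up to 1280 g/ha, formulated as WP or EC with 0.5% additive.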

STEME = test: as above; format: in vivo, Stellaria media; conditions: visual grading after ca. 3 weeks vs untreated controls, 100% = plants have died off, 0% = as control plants
Summary of the method: as §3

SETVI = test: C. Herbicidal pre-emergence action, weed and crop plants (Tables C); format: in vivo, Setaria viridis; conditions: application rate 320 g/ha; Table C10
Source text: as §1

GLXMA [2] = test: F. Post-emergence effects on crop plants (Tables F); format: in vivo, Glycine max; conditions: crop plant
Summary of the method: (§4)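 Plants were grown in sandy loam in a greenhouse and sprayed post-emergence at the single-leaf stage, 2–3 weeks after sowing. Visual damage was scored after ca. 3 weeks against untreated controls (0% = as control, 100% = dead).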

ZEAMX = test: as above; format: in vivo, Zea mays; conditions: crop plant
Summary of the method: as §4

ECHCG [3] = test: C. Herbicidal pre-emergence action, weed and crop plants (Tables C); format: in vivo, Echinochloa crus-galli
Summary of the method: (§5)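 Seeds were sown in sandy loam and covered with soil. WP or EC formulations were sprayed onto the soil surface as aqueous suspension or emulsion with 0.5% additive, at rates of 320 g/ha or below. Plants were kept in a greenhouse, and damage was scored visually after about 3 weeks as % effect versus untreated controls (100% = dead, 0% = like control).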

MATIN = test: A. Herbicidal pre-emergence action on harmful plants (Tables A); format: in vivo, Matricaria inodora; conditions: application rate 1280 g/ha; visual grading after ca. 3 weeks vs untreated controls; 100% = plants have died off, 0% = as control plants
Summary of the method: as §3

ECHCG [4] = test: as above; format: in vivo, Echinochloa crus-galli; conditions: visual grading after ca. 3 weeks vs untreated controls, 100% = plants have died off, 0% = as control plants
Summary of the method: as §3

BRSNW = test: D. Pre-emergence effects on crop plants (Tables D); format: in vivo, Brassica napus; conditions: crop plant
Summary of the method: as §2

DIGSA [5] = test: A. Herbicidal pre-emergence action on harmful plants (Tables A); format: in vivo, Digitaria sanguinalis
Summary of the method: as §3

DIGSA [6] = test: C. Herbicidal pre-emergence action, weed and crop plants (Tables C); format: in vivo, Digitaria sanguinalis
Summary of the method: as §5

TRZAS = test: F. Post-emergence effects on crop plants (Tables F); format: in vivo, Triticum aestivum; conditions: crop plant
Summary of the method: as §4

[7] = application rate 80 g/ha, Table D4b
[8] = application rate 320 g/ha, Table A7b
[9] = application rate 1280 g/ha, visual grading after ca. 3 weeks vs untreated controls, 100% = plants have died off, 0% = as control plants
[10] = application rate 80 g/ha, Table C6b
[11] = application rate 320 g/ha, Table C6a
[12] = application rate 320 g/ha, Table A12b
[13] = application rate 1280 g/ha, Table A12a
[14] = application rate 80 g/ha, Table C5b
[15] = application rate 320 g/ha, Table C5a

| Structure (SMILES) | pre-emergence activity against LOLRI (LOLRI) [%] | pre-emergence activity against GLXMA (GLXMA [1]; [7]) [%] | pre-emergence activity against POAAN (POAAN; [8]) [%] | pre-emergence activity against POAAN (POAAN; [9]) [%] | pre-emergence activity against STEME (STEME; application rate 320 g/ha) [%] | pre-emergence activity against STEME (STEME; application rate 1280 g/ha) [%] | pre-emergence activity against SETVI (SETVI) [%] | post-emergence activity against ZEAMX in % (ZEAMX; application rate 80 g/ha) [%] | pre-emergence activity against ECHCG (ECHCG [3]; [10]) [%] | pre-emergence activity against ECHCG (ECHCG [3]; [11]) [%] | pre-emergence activity against MATIN (MATIN) [%] | pre-emergence activity against ECHCG (ECHCG [4]; application rate 320 g/ha) [%] | pre-emergence activity against ECHCG (ECHCG [4]; application rate 1280 g/ha) [%] | pre-emergence activity against BRSNW in % (BRSNW; application rate 80 g/ha) [%] | pre-emergence activity against BRSNW in % (BRSNW; application rate 320 g/ha) [%] | pre-emergence activity against DIGSA (DIGSA [5]; [12]) [%] | pre-emergence activity against DIGSA (DIGSA [5]; [13]) [%] | pre-emergence activity against DIGSA (DIGSA [6]; [14]) [%] | pre-emergence activity against DIGSA (DIGSA [6]; [15]) [%] | post-emergence activity against GLXMA in % (GLXMA [2]; application rate 320 g/ha) [%] | also measured |
| --- | --- | --- | --- | --- | --- | --- | --- | --- | --- | --- | --- | --- | --- | --- | --- | --- | --- | --- | --- | --- | --- |
| COCc1nn(C(=O)OC(C)(C)C)cc1C(=O)N1CCCC1Cc1ccccc1F (racemic) [Example I-040] | 100 | 0 | 100 | 100 | 90 | 90 | 80 | 0 | 80 | 90 | 90 | 90 | 100 | 0 | 0 | 90 | 100 | 80 | 90 |  | post-emergence activity against GLXMA in % (GLXMA [2]; application rate 80 g/ha): 0%; post-emergence activity against ZEAMX in % (ZEAMX; application rate 320 g/ha): 0% |
| CNC(=O)n1cc(C(=O)N2CCCC2Cc2ccccc2F)c(COC)n1 (racemic) [Example I-051] | 90 | 0 | 100 | 100 | 90 | 90 | 80 | 20 | 100 | 100 | 90 | 90 | 90 | 0 | 0 | 90 | 90 | 90 | 100 | 10 | pre-emergence activity against POAAN (POAAN; application rate 80 g/ha, Table A7c): 90%; pre-emergence activity against ECHCG (ECHCG [4]; application rate 80 g/ha): 90% |
| COCc1nn(C)cc1C(=O)N1CCCC1C(O)c1ccccc1F (single isomer, unassigned) [Example I-053] | 90 | 0 | 90 | 100 | 90 | 90 | 90 | 0 | 90 | 100 | 90 | 90 | 90 | 10 |  | 90 | 90 | 80 | 90 | 20 | pre-emergence activity against GLXMA (GLXMA [1]; application rate 320 g/ha, Table D4a): 10%; post-emergence activity against TRZAS in % (TRZAS; application rate 80 g/ha): 10%; post-emergence activity against TRZAS in % (TRZAS; application rate 320 g/ha): 20% |
